Assay results reported in patent US9669004B2 (THE ADMINISTRATORS OF THE TULANE EDUCATIONAL FUND, priority 2010, dated 2017).
Entries after “also recorded” stand apart in the source; their conditions may differ.

How the values were obtained:
[1] = test system: progesterone receptor (PgR) gene expression in MCF-7 cells; assay: PgR mRNA expression by quantitative real time RT-PCR; format: cell-based; settings: for level of PgR expression: ligand in the presence of 0.1 nM E2, MCF-7 (E2 alone 5-fold); for increase in PgR expression compared with control: ligands only, vs DMSO
Excerpt: Total RNA was isolated from MCF-7 cells, reverse-transcribed into cDNA and subjected to real-time RT-PCR analysis for quantification. […] Results are expressed as the mean unit±SEM.

[2] = test system: ERE transcriptional activity in MCF-7 cells; assay: ERE luciferase reporter gene assay, estrogenic activity; format: cell-based; settings: for estrogenic (ERE) activity, in words: MCF-7, compound alone; for ERE transcriptional activity induced: 25 μM
Method: MCF-7 cells were transiently transfected with pGL2-ERE2x-TK-luciferase plasmid. […] While this order varied slightly as analog concentrations were increased further to 25 μM, several trends have emerged in the dose-dependent data. […] Second, shorter alkyl groups appear to have less effect on the reduction of ER agonist activity than their longer, bulkier counterparts.

MCF-7 cells = assay: clonogenic (colony) assay; format: cell-based
Method: MCF-7 cells were placed in phenol red-free DMEM supplemented with 5% dextran-coated charcoal-treated FBS for 48 h before plating. MCF-7 cells (1000) were plated in six well plates. […] Colonies of >50 cells were counted as positive. Results are normalized to percentage of clonogenic survival from DMSO control cells.

MCF-7 cell tumorigenesis = assay: estrogen stimulated MCF-7 cell tumorigenesis xenograft model; format: in vivo, Nu/Nu mice; settings: day 37 post cell injection; mean±SEM; control 351.17±43.88
Method: 4-6 week old ovariectomized female Nu/Nu mice were injected bilaterally in the mammary fat pad (MFP) with 5×10^6 MCF-7 cells in matrigel (reduced factor). […] Tumors were allowed to form and at day 15 post cell injection mice were randomized into groups (n=5). Animals were treated daily with i.p. injections of either vehicle (1:5 DMSO/PBS) or analog 2 (50 mg/kg/animal). Tamoxifen animals were implanted with a slow release tamoxifen pellet in the lateral area of the neck (opposite side from E2 pellet). ICI animals were given a onetime i.p. injection of ICI 182,780 (5 mg in castor oil). Tumor size was measured 3 times weekly using digital calipers. Data represented as mean tumor volume±SEM.
Due to the anti-estrogenic effects of analog 2 on MCF-7 cells observed in the in vitro biological assays, this analog was selected for further testing of estrogen stimulated MCF-7 cell tumorigenesis using a xenograft model. Ovariectomized female immunocompromised mice were injected with MCF-7 cells and supplemented with exogenous estrogen pellets. Once tumors were palpable animals were treated with analog 2, tamoxifen, or ICI and tumor volume compared to vehicle control animals.
Xenograft experiments were conducted using previously published protocols. Briefly, 4-6 week old female ovariectomized NU/Nu mice were obtained from Charles River Laboratories (Wilmington, Mass.). The animals were allowed a period of adaptation in a sterile and pathogen-free environment with phytoestrogen-free food and water ad libitum. MCF-7 cells were harvested in the exponential growth phase using a PBS/EDTA solution and washed. Mice were injected bilaterally in the mammary fat pad (M.F.P) with 5×10^6 viable cells suspended in 50 μL sterile PBS mixed with 100 μL Matrigel (reduced factor; BD Biosciences, Bedford, Mass.). […] All procedures in animals were carried out under anesthesia using a mix of isofluorane and oxygen delivered by mask. […] Tumor size was measured 3 times weekly using digital calipers. The volume of the tumor was calculated using the following formula: 4/3 πLS^2 (L=larger radius; S=shorter radius). […]

[3] = test system: E2 stimulation on ERE transcriptional activity in MCF-7 cells; assay: ERE luciferase reporter gene assay in the presence of 0.1 nM E2, antiestrogenic activity; format: cell-based; settings: for inhibition at 25 µM: Homo sapiens, MCF7, 25 μM (highest concentration) plus 0.1 nM E2, read-out: reduction of estradiol-dependent luciferase activity
Method: MCF-7 cells were transiently transfected with pGL2-ERE2x-TK-luciferase plasmid. […] The luciferase activities of the treated cells were then measured by the ERE reporter gene assay.

MDA-MB-231 cells = assay: MDA-MB-231 xenograft tumor volume; format: in vivo, CB-17/SCID mice
Method: 4-6 week old female CB-17/SCID mice were allowed a period of adaptation in a sterile and pathogen-free environment with phytoestrogen-free food and water ad libitum. MDA-MB-231 cells were harvested in the exponential growth phase using a PBS/EDTA solution and washed. Mice were injected bilaterally in the mammary fat pad (MFP) with 5×10^6 viable cells suspended in 50 μL sterile PBS mixed with 100 μL Matrigel (reduced factor; BD Biosciences, Bedford, Mass.). Tumors were allowed to form, and at day 4 post cell injection mice were randomized into groups of 5 mice each. Mice were treated daily with intra-peritoneal (IP) injections of either vehicle (DMSO) or analog 2 (50 mg/kg/animal/day) for 14 days. External tumor size was measured using digital calipers and tumor volume calculated using the formula: 4/3 π LS^2 (L=larger radius; S=shorter radius). At necropsy, animals were euthanized by cervical dislocation after exposure to CO2. […] This trend continued until the mice were euthanized at day 18, where tumor volume for control mice averaged 188±18.78 mm^3 and the tumor volume for mice treated with analog 2 averaged 91.11±10.15 mm^3.

MDA-MB-157 = assay: transwell migration assay; format: cell-based; settings: 10 μM, 24 hours
Method: (§1) TNBC cells were seeded (2.5×10^4 in 500 μl 10% DMEM) in the upper chamber of a 24 well transwell system. DMEM supplemented with FBS (10%) was used as a chemoattractant in the lower wells. After 24 hours of treatment (DMSO or analog 2 10 μM), membranes were scrubbed, stained with 0.1% crystal violet, and the number of migrated cells analyzed by microscopy. Data represented as normalized means of triplicate experiments±SEM. […] The TNBC phenotype is characterized by highly aggressive and migratory cells. The ability of analog 2 to inhibit this migration indicates its potential as a novel anti-metastatic therapeutic in the triple-negative breast carcinoma setting.

BT-549 = assay: transwell migration assay; format: cell-based; settings: 10 μM, 24 hours
Method: as §1

MDA-MB-231 = assay: transwell migration assay; format: cell-based; settings: 10 μM, 24 hours
Method: as §1

[4] = test system: AKT and mTOR phosphorylation in MDA-MB-231 cells; assay: immunoblot of phospho-AKT and mTOR; format: cell-based
Method: The effects of analog 2 on TNBC may be mediated via alterations in the PI3K/AKT/mTOR pathway. After 72 hours in 5% charcoal-stripped fetal bovine serum (CSFBS) DMEM phenol-free medium, MDA-MB-231 cells were re-fed with either medium-containing vehicle, analog 2 (10 μM, 4 hours), analog 2 (4 hours) followed by EGF stimulation (50 ng/mL, 30 minutes), or EGF alone (30 minutes). Membranes were probed with primary antibodies according to manufacturers' protocol. Antibodies: phosho-AKT (S473 and T308), mTOR ([…]), and corresponding total protein antibodies (Cell Signaling), using rho as a loading control (Santa Cruz).

Structure (SMILES): O=c1c(-c2ccc(O)cc2)coc2cc(O)ccc12 [daidzein, reference compound]
- level of PgR expression [1]: 5 fold
- increase in PgR expression compared with control ([1]; MCF-7): 3 fold
- estrogenic (ERE) activity, in words [2]: more potent estrogenic activity than any of its derivatives
- increase in clonogenicity of MCF-7 cells (MCF-7 cells; 1 μM, without E2, vs DMSO): over 3 fold
- increase in clonogenicity of MCF-7 cells (MCF-7 cells; 10 μM, without E2, vs DMSO): 2.5 times

Structure (SMILES): C[C@]12CC[C@@H]3c4ccc(O)cc4C[C@@H](CCCCCCCCC[S+]([O-])CCCC(F)(F)C(F)(F)F)[C@H]3[C@@H]1CC[C@@H]2O (stereo partly drawn) [ICI 182,780]
- tumor volume (MCF-7 cell tumorigenesis): 130.95±23.49 mm3

Structure (SMILES): COc1ccc2c(=O)c(-c3ccc(O)cc3)coc2c1 [3a, 3-(4-Hydroxyphenyl)-7-methoxychromen-4-one]
- level of PgR expression [1]: 4 fold
- increase in PgR expression compared with control ([1]; MCF-7): 3 fold
- ERE activity ([2]; 10 μM, MCF-7, normalized to E2 (100)): 38%
- ERE transcriptional activity induced ([2]; MCF-7, normalized to E2 (100)): 70.9%
- inhibition at 25 µM [3]: < 47%
- increase of cell proliferation (clonogenicity) (MCF-7 cells; 1 μM, without E2, vs DMSO): 43%
- increase in clonogenicity of MCF-7 cells (MCF-7 cells; 10 μM, without E2, vs DMSO): 24%

Structure (SMILES): CC(C)Oc1ccc2c(=O)c(-c3ccc(O)cc3)coc2c1 [3d, 3-(4-Hydroxyphenyl)-7-isopropoxychromen-4-one]
- inhibition at 25 µM [3]: > 60%

Structure (SMILES): CC1(C)C=Cc2c(ccc3c(=O)c(-c4ccc(O)cc4)coc23)O1 [compound 2, 3-(4-Hydroxyphenyl)-8,8-dimethyl-8H-pyrano[2,3-f]chromen-4-one]
- level of PgR expression [1]: 3 fold
- PgR expression compared with DMSO, in words ([1]; ligand only, MCF-7): decrease in PgR expression
- tumor volume (MDA-MB-231 cells; day 18, 50 mg/kg/animal/day IP for 14 days, control 188±18.78): 91.11±10.15 mm^3
- tumor volume vs control, in words (MDA-MB-231 cells; seven days after cell injection, three days' treatment): statistically less than those of control mice
- number of migrated cells compared to control (normalized to 100%) (MDA-MB-157): 25.57%
- number of migrated cells compared to control (normalized to 100%) (BT-549): 0.08%
- number of migrated cells compared to control (normalized to 100%) (MDA-MB-231): 0%
- effect on EGF-stimulated AKT and mTOR phosphorylation, in words ([4]; 10 μM 4 hours then EGF 50 ng/mL 30 minutes): significantly abrogate the effects of EGF stimulation on AKT and mTOR phosphorylation
- phospho-levels of AKT at S473 and T308, in words ([4]; 10 μM, 4 hours): significant decreases
- estrogenic (ERE) activity, in words [2]: little or no estrogen activity; also recorded: negligible ERE activity
- blocking of ERE activity, in words ([3]; 25 μM plus 0.1 nM E2): completely blocking ERE activity
- clonogenicity in the presence of E2, in words (MCF-7 cells; 10 μM plus 0.1 nM estradiol): inhibit the clonogenicity of MCF-7 cells completely
- cell clonogenicity, in words (MCF-7 cells; 10 μM, without E2): completely blocked cell clonogenicity
- inhibition at 1 µM (MCF-7 cells; Homo sapiens, MCF7, read-out: inhibition of clonogenicity): 15%
- tumor volume (MCF-7 cell tumorigenesis): 241.53±68.29 mm3

Structure (SMILES): CCCCOc1ccc2c(=O)c(-c3ccc(O)cc3)coc2c1 [3e, 7-Butoxy-3-(4-hydroxyphenyl)chromen-4-one]
- inhibition at 25 µM [3]: < 47%

Structure (SMILES): O=c1c(-c2ccc(O)cc2)coc2cc(OC3CCCC3)ccc12 [3g, 7-Cyclopentyloxy-3-(4-hydroxyphenyl)chromen-4-one]
- estrogenic (ERE) activity, in words [2]: negligible ERE activity
- inhibition at 25 µM [3]: > 60%

Structure (SMILES): CCCCCCOc1ccc2c(=O)c(-c3ccc(O)cc3)coc2c1 [3h, 7-Hexyloxy-3-(4-hydroxyphenyl)chromen-4-one]
- inhibition at 25 µM [3]: < 47%

Structure (SMILES): CC/C(=C(\c1ccccc1)c1ccc(OCCN(C)C)cc1)c1ccccc1 [tamoxifen]
- tumor volume (MCF-7 cell tumorigenesis): 178.12±41.18 mm3

Structure (SMILES): CCOc1ccc2c(=O)c(-c3ccc(O)cc3)coc2c1 [3b, 3-(4-Hydroxyphenyl)-7-ethoxychromen-4-one]
- ERE transcriptional activity induced ([2]; MCF-7, normalized to E2 (100)): 80.4%
- inhibition at 25 µM [3]: < 47%

Structure (SMILES): C[C@]12CC[C@@H]3c4ccc(O)cc4CC[C@H]3[C@@H]1CC[C@@H]2O [E2, 17β-estradiol, reference compound]
- increase in PgR expression compared with control ([1]; MCF-7): 5 fold
- increase in clonogenicity of MCF-7 cells (MCF-7 cells; 0.1 nM, vs DMSO treated controls): approximately 3 fold

Structure (SMILES): CCCOc1ccc2c(=O)c(-c3ccc(O)cc3)coc2c1 [3c, 3-(4-Hydroxyphenyl)-7-propoxychromen-4-one]
- ERE transcriptional activity induced ([2]; MCF-7, normalized to E2 (100)): 38.4%
- inhibition at 25 µM [3]: < 47%

Structure (SMILES): CC(C)COc1ccc2c(=O)c(-c3ccc(O)cc3)coc2c1 [3f, 3-(4-Hydroxyphenyl)-7-isobutoxychromen-4-one]
- estrogenic (ERE) activity, in words [2]: negligible ERE activity
- inhibition at 25 µM [3]: > 60%
